# Measured values taken from patent publication US20250145676A1, “FUNCTIONAL EXPRESSION OF ECTOPIC TMC1 AND TMC2 IN HETEROLOGOUS CELLS” (The Hong Kong University of Science and Technology, priority 2023, published 2025).
# Molecular target: T1, Fyn-mTMC2-mCherry+mTMIE channel (Mus musculus, UniProt Q8R4P4)
# T1 construct: expressed in transfected cells; host or cells: PK-HEK293T (PIEZO1-knockout HEK293T)
# T1 sequence (Q8R4P4 1-888): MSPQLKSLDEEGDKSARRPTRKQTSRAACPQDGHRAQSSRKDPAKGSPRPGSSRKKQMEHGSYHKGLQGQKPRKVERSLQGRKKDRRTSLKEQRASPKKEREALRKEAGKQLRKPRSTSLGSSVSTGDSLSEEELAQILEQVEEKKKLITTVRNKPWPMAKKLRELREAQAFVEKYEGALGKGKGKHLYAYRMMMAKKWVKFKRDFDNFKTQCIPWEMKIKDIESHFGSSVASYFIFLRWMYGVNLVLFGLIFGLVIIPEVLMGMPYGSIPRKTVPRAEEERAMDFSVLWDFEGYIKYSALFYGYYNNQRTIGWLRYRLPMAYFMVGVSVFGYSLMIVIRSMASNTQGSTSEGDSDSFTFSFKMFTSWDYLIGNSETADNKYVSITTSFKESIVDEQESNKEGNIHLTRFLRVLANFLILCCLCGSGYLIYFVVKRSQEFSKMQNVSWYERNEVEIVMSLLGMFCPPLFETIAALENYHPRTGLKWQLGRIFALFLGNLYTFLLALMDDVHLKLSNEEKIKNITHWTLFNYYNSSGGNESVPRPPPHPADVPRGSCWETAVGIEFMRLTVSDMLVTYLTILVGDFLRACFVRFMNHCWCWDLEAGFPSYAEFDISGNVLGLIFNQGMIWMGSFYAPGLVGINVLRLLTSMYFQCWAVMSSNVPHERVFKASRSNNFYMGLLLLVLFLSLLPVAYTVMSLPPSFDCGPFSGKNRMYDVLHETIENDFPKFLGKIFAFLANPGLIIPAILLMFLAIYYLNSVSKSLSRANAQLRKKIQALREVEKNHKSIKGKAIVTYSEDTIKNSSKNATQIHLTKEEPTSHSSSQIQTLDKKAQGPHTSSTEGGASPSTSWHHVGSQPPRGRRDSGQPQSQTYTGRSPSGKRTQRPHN
# T1 sequence (Q8K467 29-153 partner): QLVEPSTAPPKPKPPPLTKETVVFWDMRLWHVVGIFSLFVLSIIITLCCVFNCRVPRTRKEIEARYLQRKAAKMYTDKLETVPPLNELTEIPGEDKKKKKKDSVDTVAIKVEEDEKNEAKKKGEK
# Test: Whole-cell poking patch-clamp assay, DHS sensitivity of MS currents
# Type: cell-based
# Conditions: 2 mM DHS in the bath; PK-HEK293T cells co-expressing Fyn-mTMC2-mCherry and mTMIE; 4 experiments, p=0.0044
# Procedure: Briefly, PK-HEK293T cells were incubated for 24 h after transfection before performing the whole-cell patch-clamp assay at room temperature. For co-transfection of two plasmids, the w/w ratio of TMC1/2 plasmids and TMIE plasmid was 3:1. The bath solution contained (in mM) 137 NaCl, 5.8 KCl, 0.7 NaH2PO4, 10 HEPES, 1.3 CaCl2, 0.9 MgCl2, 5.6 glucose (pH 7.3 with NaOH); the pipette solution contained (in mM) 137 CsCl, 0.1 EGTA, 10 HEPES, 3.5 MgCl2 (pH 7.3 with CsOH). The recording glass pipettes (1B150-4 Borosilicate Glass Capillaries, World Precision Instruments) were pulled and polished using a pipette puller (DMZ, Zeitz Instruments) and featured a resistance of 3-5 MQ. The mechanical stimulus was applied by poking cells with a fire-polished glass probe with a tip diameter of 2-3 μm. […] The reversal potentials were calculated using Vpipette at zero current with correction for the junction potential of the pipette and bath solutions (+1.2 mV for whole cell recording). Data were analyzed with Clampfit 10.7 (Molecular Devices). For the measurement of the inactivation time constant, all current responses, except for traces with a noticeable shift in baseline, were individually calculated and averaged.
structure (smiles),measurement,value
"CN[C@@H]1[C@H](O[C@H]2[C@H](O[C@H]3[C@H](O)[C@@H](O)[C@H](NC(=N)N)[C@@H](O)[C@@H]3NC(=N)N)O[C@@H](C)[C@]2(O)CO)O[C@@H](CO)[C@H](O)[C@H]1O [DHS, dihydrostreptomycin]",DHS-sensitivity of whole-cell MS currents,DHS-sensitive
